Values of other authors as cited in US11213608B2, “Compositions including gelatin nanoparticles and methods of use thereof” (Wake Forest University Health Sciences, priority 2018, dated 2022).

System: HepG2 cells

For `Cc1c(C)c2c(c(C)c1O)CCC(C)(COc1ccc(CC3SC(=O)NC3=O)cc1)O2` (stereo not shown) [TRO, troglitazone], the “concentration above which toxic effects are commonly reported” value is given as “above 100 μM”.
